Assay results from the supplement of paper PMC10883282.

Key:
Assay in all cases: relative viability vs DMSO control (72 h) (fraction); higher = more viable cells
RD-ES = tested on: RD-ES
Outline: (§1)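 ATPLite readings, expressed as percent growth and averaged over up to triplicate wells, provided relative viability. Before reading, sarcoma cell lines seeded in 384-well plates to reach 80–90% confluence received 2.5 µl of serially diluted compound after 24 h, from source plates of 10 mM to 0.0002 mM. Plates were held 72 h at 37 °C, 5% CO2, with 0.1% DMSO as vehicle and a 5 µM positive control. The data were rescaled to 1 for full and 0 for none.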

SYO-1 = tested on: SYO-1
Outline: as §1

SK-ES-1 = tested on: SK-ES-1
Outline: as §1

G401 = tested on: G401
Outline: as §1

VA-ES-BJ = tested on: VA-ES-BJ
Outline: as §1

KHOS-240S = tested on: KHOS-240S
Outline: as §1

HT1080 = tested on: HT1080
Outline: as §1

RD = tested on: RD
Outline: as §1

SW982 = tested on: SW982
Outline: as §1

SW1353 = tested on: SW1353
Outline: as §1

SK-LMS-1 = tested on: SK-LMS-1
Outline: as §1

MES-SA = tested on: MES-SA
Outline: as §1

CN(C)CCCOc1ccc(-c2ccc3ncc4c(c3c2)n(C2CCOCC2)c(=O)n4C)cn1 [AZD-0156]
Conditions	relative viability
G401, 0.00017 µM	1.08
G401, 0.00051 µM	1.06
G401, 0.00152 µM	1.06
G401, 0.00457 µM	1.05
G401, 0.01372 µM	1.06
G401, 0.04115 µM	1.05
G401, 0.1235 µM	1.03
G401, 0.3704 µM	1.01
G401, 1.111 µM	0.968
G401, 3.333 µM	1.01
G401, 10 µM	0.9515
HT1080, 0.00017 µM	1.04
HT1080, 0.00051 µM	1.1
HT1080, 0.00152 µM	1.091
HT1080, 0.00457 µM	1.12
HT1080, 0.01372 µM	1.09
HT1080, 0.04115 µM	1.09
HT1080, 0.1235 µM	1.07
HT1080, 0.3704 µM	1.06
HT1080, 1.111 µM	1.09
HT1080, 3.333 µM	1.11
HT1080, 10 µM	1.026
KHOS-240S, 0.00017 µM	1.08
KHOS-240S, 0.00051 µM	1.1
KHOS-240S, 0.00152 µM	1.1
KHOS-240S, 0.00457 µM	1.08
KHOS-240S, 0.01372 µM	1.06
KHOS-240S, 0.04115 µM	1.03
KHOS-240S, 0.1235 µM	1.04
KHOS-240S, 0.3704 µM	0.99
KHOS-240S, 1.111 µM	0.865
KHOS-240S, 3.333 µM	0.814
KHOS-240S, 10 µM	0.587
MES-SA, 0.00017 µM	1.023
MES-SA, 0.00051 µM	1.02
MES-SA, 0.00152 µM	0.955
MES-SA, 0.00457 µM	1.02
MES-SA, 0.01372 µM	0.935
MES-SA, 0.04115 µM	0.97
MES-SA, 0.1235 µM	0.901
MES-SA, 0.3704 µM	0.813
MES-SA, 1.111 µM	0.716
MES-SA, 3.333 µM	0.848
MES-SA, 10 µM	0.654
RD, 0.00017 µM	1.04
RD, 0.00051 µM	1.08
RD, 0.00152 µM	1.07
RD, 0.00457 µM	1.1
RD, 0.01372 µM	1.08
RD, 0.04115 µM	1.11
RD, 0.1235 µM	1.07
RD, 0.3704 µM	1.076
RD, 1.111 µM	0.949
RD, 3.333 µM	0.592
RD, 10 µM	0.536
RD-ES, 0.00017 µM	0.944
RD-ES, 0.00051 µM	1.01
RD-ES, 0.00152 µM	1.03
RD-ES, 0.00457 µM	1
RD-ES, 0.01372 µM	0.861
RD-ES, 0.04115 µM	0.839
RD-ES, 0.1235 µM	0.7218
RD-ES, 0.3704 µM	0.69
RD-ES, 1.111 µM	0.616
RD-ES, 3.333 µM	0.548
RD-ES, 10 µM	0.36
SK-ES-1, 0.00017 µM	1.07
SK-ES-1, 0.00051 µM	1.06
SK-ES-1, 0.00152 µM	0.963
SK-ES-1, 0.00457 µM	1
SK-ES-1, 0.01372 µM	0.828
SK-ES-1, 0.04115 µM	0.815
SK-ES-1, 0.1235 µM	0.734
SK-ES-1, 0.3704 µM	0.643
SK-ES-1, 1.111 µM	0.59
SK-ES-1, 3.333 µM	0.626
SK-ES-1, 10 µM	0.522
SK-LMS-1, 0.00017 µM	0.969
SK-LMS-1, 0.00051 µM	1.01
SK-LMS-1, 0.00152 µM	0.962
SK-LMS-1, 0.00457 µM	0.976
SK-LMS-1, 0.01372 µM	0.891
SK-LMS-1, 0.04115 µM	0.881
SK-LMS-1, 0.1235 µM	0.7368
SK-LMS-1, 0.3704 µM	0.743
SK-LMS-1, 1.111 µM	0.665
SK-LMS-1, 3.333 µM	0.7995
SK-LMS-1, 10 µM	0.674
SW982, 0.00017 µM	1.05
SW982, 0.00051 µM	1.08
SW982, 0.00152 µM	1.06
SW982, 0.00457 µM	1.05
SW982, 0.01372 µM	1.03
SW982, 0.04115 µM	0.964
SW982, 0.1235 µM	0.828
SW982, 0.3704 µM	0.619
SW982, 1.111 µM	0.484
SW982, 3.333 µM	0.349
SW982, 10 µM	0.218
SW1353, 0.00017 µM	1.1
SW1353, 0.00051 µM	1.07
SW1353, 0.00152 µM	1.05
SW1353, 0.00457 µM	1.07
SW1353, 0.01372 µM	1.01
SW1353, 0.04115 µM	1.02
SW1353, 0.1235 µM	0.97
SW1353, 0.3704 µM	0.951
SW1353, 1.111 µM	0.883
SW1353, 3.333 µM	0.949
SW1353, 10 µM	0.865
SYO-1, 0.00017 µM	1
SYO-1, 0.00051 µM	1.01
SYO-1, 0.00152 µM	0.983
SYO-1, 0.00457 µM	0.949
SYO-1, 0.01372 µM	0.869
SYO-1, 0.04115 µM	0.891
SYO-1, 0.1235 µM	0.737
SYO-1, 0.3704 µM	0.701
SYO-1, 1.111 µM	0.534
SYO-1, 3.333 µM	0.526
SYO-1, 10 µM	0.259
VA-ES-BJ, 0.00017 µM	1.118
VA-ES-BJ, 0.00051 µM	1.11
VA-ES-BJ, 0.00152 µM	1.09
VA-ES-BJ, 0.00457 µM	1.09
VA-ES-BJ, 0.01372 µM	1.04
VA-ES-BJ, 0.04115 µM	0.949
VA-ES-BJ, 0.1235 µM	0.81
VA-ES-BJ, 0.3704 µM	0.674
VA-ES-BJ, 1.111 µM	0.462
VA-ES-BJ, 3.333 µM	0.453
VA-ES-BJ, 10 µM	0.348
